# According to the supplement of paper PMC11061612:
# Assays:
# [1] = compound: CC1=CN2[C@@H](C1)C=NC3=CC(=C(C=C3C2=O)OC)OCCCCCOC4=C(C=C5C(=C4)N=C[C@@H]6CC(=CN6C5=O)C)OC [SG3199]; conditions: max 0.001 µM
# Method in brief: (§1)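 Following 24 hours at 37°C and 5% CO2, cancer cell lines in 1536-well plates with 7.5 μl DMEM/F12 or RPMI and 10% FBS were dosed for 72 hours, final DMSO typically being 0.2%. CellTiter-Glo 2.0 luminescence, scaled between blank-well and DMSO-well means, gave the viability readout. Dose responses were fitted to a two-parameter logistic curve with a non-linear mixed effects model, and the single-agent IC50 was derived from this fit.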
# [2] = compound: CC(C)n1c(=O)n(C)c2cnc3cc(F)c(-c4ccc(OCCCN5CCCCC5)nc4)cc3c21 [AZD1390]; conditions: max 0.3 µM
# Method in brief: as §1
# [3] = compound: COc1cccc2c1C(=O)c1c(O)c3c(c(O)c1C2=O)C[C@@](O)(C(=O)CO)C[C@@H]3O[C@H]1C[C@H](N)[C@H](O)[C@H](C)O1 [Doxorubicin]; conditions: max 1 µM
# Method in brief: as §1
# [4] = compound: Cc1cc2ncnn2cc1Nc1ncc2c(n1)n(C1CCOCC1)c(=O)n2C [AZD7648]; conditions: max 10 µM
# Method in brief: as §1
# [5] = compound: CC1=C(C(=CC=C1)Cl)NC(=O)C2=CN=C(S2)NC3=CC(=NC(=N3)C)N4CCN(CC4)CCO [Dasatinib]; conditions: max 2 µM
# Method in brief: as §1
# [6] = compound: O=C(c1cc(Cc2n[nH]c(=O)c3ccccc23)ccc1F)N1CCN(C(=O)C2CC2)CC1 [Olaparib]; conditions: max 10 µM
# Method in brief: as §1
# [7] = compound: Cc1c2c(nn1C)CSCc1cc(n(C)n1)CSc1cc(c3ccccc3c1)OCCCc1c(C(=O)O)n(C)c3c-2c(Cl)ccc13 [AZD5991]; conditions: max 1 µM
# Method in brief: as §1
# [8] = compound: CN(C)CCCOc1ccc(-c2ccc3ncc4c(c3c2)n(C2CCOCC2)c(=O)n4C)cn1 [AZD0156]
# Method in brief: as §1
# [9] = compound: C=CCn1c(=O)c2cnc(Nc3ccc(N4CCN(C)CC4)cc3)nc2n1-c1cccc(C(C)(C)O)n1 [AZD1775]
# Method in brief: as §1
# [10] = compound: COc1cc(Nc2ncc3c(n2)-c2ccc(Cl)cc2C(c2c(F)cccc2OC)=NC3)ccc1C(=O)O [Alisertib]; conditions: max 10 µM
# Method in brief: as §1
# [11] = compound: COc1cc2ncnc(Nc3ccc(F)c(Cl)c3)c2cc1OCCCN1CCOCC1 [Gefitinib]; conditions: max 10 µM
# Method in brief: as §1
# [12] = compound: C[C@@H](Oc1cc(-c2cnn(C3CCNCC3)c2)cnc1N)c1c(Cl)ccc(F)c1Cl [Crizotinib]; conditions: max 10 µM
# Method in brief: as §1
# [13] = compound: CCc1c2c(nc3ccc(O)cc13)-c1cc3c(c(=O)n1C2)COC(=O)[C@]3(O)CC [SN-38]; conditions: max 0.3 µM
# Method in brief: as §1
# [14] = compound: C[C@@H]1COCCN1C2=NC(=NC(=C2)C3(CC3)[S@](=N)(=O)C)C4=C5C=CNC5=NC=C4 [AZD6738]; conditions: max 10 µM
# Method in brief: as §1
# [15] = compound: CS(=O)(=O)CCNCc1ccc(-c2ccc3ncnc(Nc4ccc(OCc5cccc(F)c5)c(Cl)c4)c3c2)o1 [Lapatinib]; conditions: max 10 µM
# Method in brief: as §1
# [16] = compound: Cn1cnc2c(F)c(Nc3ccc(Br)cc3Cl)c(C(=O)NOCCO)cc21 [Selumetinib]
# Method in brief: as §1
# [17] = compound: COc1cccc(OCCCN)c1-c1cc(Nc2cnc(C#N)cn2)n[nH]1 [Prexasertib]; conditions: max 1 µM
# Method in brief: as §1
# [18] = compound: CN(CC[C@H](CSC1=CC=CC=C1)NC2=C(C=C(C=C2)S(=O)(=O)NC(=O)C3=CC=C(C=C3)N4CCC(CC4)[C@H](C5=CC=CC=C5C6=CC=C(C=C6)Cl)O)S(=O)(=O)C(F)(F)F)CCO [AZD4320]; conditions: max 1 µM
# Method in brief: as §1
# [19] = compound: C[C@@H](c1ccc2nccn2c1)n1nnc2ncc(-c3cnn(C)c3)nc21 [Savolitinib]; conditions: max 1 µM
# Method in brief: as §1
# [20] = compound: CCN(CCO)CCCOc1ccc2c(Nc3cc(CC(=O)Nc4cccc(F)c4)[nH]n3)ncnc2c1 [AZD2811]; conditions: max 1 µM
# Method in brief: as §1
# [21] = compound: C1CN(CCC1(C(=O)N[C@@H](CCO)C2=CC=C(C=C2)Cl)N)C3=NC=NC4=C3C=CN4 [Capivasertib]
# Method in brief: as §1
# [22] = compound: CC1(C)CCC(CN2CCN(c3ccc(C(=O)NS(=O)(=O)c4ccc(NCC5CCOCC5)c([N+](=O)[O-])c4)c(Oc4cnc5[nH]ccc5c4)c3)CC2)=C(c2ccc(Cl)cc2)C1 [Venetoclax]; conditions: max 1 µM
# Method in brief: as §1
# [23] = compound: CC(=O)c1c(C)c2cnc(Nc3ccc(N4CCNCC4)cn3)nc2n(C2CCCC2)c1=O [Palbociclib]; conditions: max 10 µM
# Method in brief: as §1
# [24] = compound: Cc1nc(-c2cn3c(n2)-c2ccc(-c4cnn(C(C)(C)C(N)=O)c4)cc2OCC3)n(C(C)C)n1 [Taselisib]; conditions: max 10 µM
# Method in brief: as §1
# [25] = compound: CC(=O)Nc1cccc(-n2c(=O)n(C3CC3)c(=O)c3c(Nc4ccc(I)cc4F)n(C)c(=O)c(C)c32)c1 [Trametinib]; conditions: max 1 µM
# Method in brief: as §1
# [26] = compound: COc1nnc2ccc(N3CCC(c4ccc(OCCN5CCN(C)C(=O)[C@H]5C)cc4)CC3)nn12 [AZD5153]; conditions: max 1 µM
# Method in brief: as §1
# [27] = compound: C[C@@H](Nc1cc(F)cc(F)c1)c1cc(C(=O)N(C)C)cc2c(=O)cc(N3CCOCC3)oc12 [AZD8186]; conditions: max 3 µM
# Method in brief: as §1
Cell Line,"IC50, cell viability 72 h [1]","IC50, cell viability 72 h [2]","IC50, cell viability 72 h [3]","IC50, cell viability 72 h [4]","IC50, cell viability 72 h [5]","IC50, cell viability 72 h [6]","IC50, cell viability 72 h [7]","IC50, cell viability 72 h ([8]; max 3 µM)","IC50, cell viability 72 h ([9]; max 3 µM)","IC50, cell viability 72 h [10]","IC50, cell viability 72 h [11]","IC50, cell viability 72 h [12]","IC50, cell viability 72 h [13]","IC50, cell viability 72 h [14]","IC50, cell viability 72 h [15]","IC50, cell viability 72 h ([16]; max 10 µM)","IC50, cell viability 72 h [17]","IC50, cell viability 72 h [18]","IC50, cell viability 72 h [19]","IC50, cell viability 72 h [20]","IC50, cell viability 72 h ([21]; max 10 µM)","IC50, cell viability 72 h [22]","IC50, cell viability 72 h [23]","IC50, cell viability 72 h [24]","IC50, cell viability 72 h [25]","IC50, cell viability 72 h [26]","IC50, cell viability 72 h [27]","IC50, cell viability 72 h ([8]; max 1 µM)","IC50, cell viability 72 h ([9]; max 1 µM)","IC50, cell viability 72 h ([16]; max 3 µM)","IC50, cell viability 72 h ([21]; max 3 µM)"
GA-10 (Burkitt's Lymphoma),> 1 nM,> 300 nM,369 nM,> 10000 nM,166 nM,> 10000 nM,252 nM,> 3000 nM,503 nM,147 nM,> 10000 nM,2340 nM,23.4 nM,631 nM,> 10000 nM,> 10000 nM,9.18 nM,> 1000 nM,> 1000 nM,108 nM,1480 nM,> 1000 nM,234 nM,845 nM,> 1000 nM,83.3 nM,978 nM,,,,
GCT (Other Solid Carcinomas),> 1 nM,> 300 nM,> 1000 nM,> 10000 nM,703 nM,> 10000 nM,> 1000 nM,> 3000 nM,> 3000 nM,> 10000 nM,> 10000 nM,> 10000 nM,43.5 nM,> 10000 nM,> 10000 nM,> 10000 nM,> 1000 nM,> 1000 nM,> 1000 nM,> 1000 nM,6420 nM,> 1000 nM,> 10000 nM,8270 nM,846 nM,603 nM,> 3000 nM,,,,
HT55 (Colorectal Carcinoma),> 1 nM,> 300 nM,> 1000 nM,> 10000 nM,> 2000 nM,> 10000 nM,> 1000 nM,> 3000 nM,659 nM,> 10000 nM,> 10000 nM,> 10000 nM,> 300 nM,> 10000 nM,1750 nM,1150 nM,268 nM,> 1000 nM,> 1000 nM,> 1000 nM,> 10000 nM,> 1000 nM,9650 nM,753 nM,30.1 nM,646 nM,> 3000 nM,,,,
TE-10 (Esophageal Squamous Cell Carcinoma),> 1 nM,,820 nM,> 10000 nM,,> 10000 nM,290 nM,,,2930 nM,,,37.1 nM,1600 nM,,,11.9 nM,> 1000 nM,,> 1000 nM,,> 1000 nM,,941 nM,825 nM,,> 3000 nM,> 1000 nM,381 nM,> 3000 nM,> 3000 nM
